Reference: PubChem BioAssay (NCI)
Where “and” joins values, the source holds several entries; their conditions need not be identical. Identical values can stand only once.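 Five concentrations, 48 hours, 96-well plates. GI50: concentration for 50% inhibition of growth. TGI: concentration producing complete growth inhibition.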

Tests used:
Assay in all cases: DTP human tumour cell line panel, 48 h
A549 NSCLC = test system: A549 NSCLC
HCC-2998 colon = test system: HCC-2998 colon
HT29 colon = test system: HT29 colon
MALME-3M melanoma = test system: MALME-3M melanoma
NCI-H226 lung = test system: NCI-H226 lung
RPMI-8226 leukemia = test system: RPMI-8226 leukemia
SN12C renal = test system: SN12C renal
DU-145 prostate = test system: DU-145 prostate
MDA-MB-435 = test system: MDA-MB-435
NCI/ADR-RES ovarian = test system: NCI/ADR-RES ovarian

Row | Structure (SMILES) | TGI (A549 NSCLC) [µM] | TGI (HCC-2998 colon) [µM] | TGI (HT29 colon) | TGI (MALME-3M melanoma) [µM] | TGI (NCI-H226 lung) [µM] | TGI (RPMI-8226 leukemia) [µM] | TGI (SN12C renal) [µM] | TGI (DU-145 prostate) [µM] | TGI (MDA-MB-435) [µM] | TGI (NCI/ADR-RES ovarian) [µM] | GI50 (A549 NSCLC) [µM] | GI50 (DU-145 prostate) [µM] | GI50 (HCC-2998 colon) [µM] | GI50 (HT29 colon) [µM] | GI50 (MALME-3M melanoma) [µM] | GI50 (MDA-MB-435) [µM] | GI50 (NCI-H226 lung) [µM] | GI50 (NCI/ADR-RES ovarian) [µM] | GI50 (SN12C renal) [µM] | GI50 (RPMI-8226 leukemia) [µM]
1 | C/C=C/C(=O)Oc1cccc2cccnc12 | > 100 | 46.1 | 58 µM | 8.94 | 68.6 | > 96.1 | > 78.2 |  |  |  |  |  |  |  |  |  |  |  |  | 
2 | COc1cc(OCc2ccccc2)c2c(CCC(=O)O)cc(=O)oc2c1 (tested in a mixture with another compound) | > 100 | > 100 | > 100 µM | > 100 | > 100 | > 100 |  | > 100 | > 100 | > 100 |  |  |  |  |  |  |  |  |  | 
3 | Cc1cccc(NC(=O)C(=O)C(C2OC(=O)c3ccccc32)[N+](=O)[O-])c1C (centres undefined) | 35.4 | 27 | 35.1 µM | 10.5 | 26.4 |  | 18.9 |  |  |  |  |  |  |  |  |  |  |  |  | 
4 | O=C(/C=C/c1ccc(Cl)c(Cl)c1)c1ccccc1Cl | 31.6 | 25.6 | 12.8 µM | 30.5 | 31.6 | > 29.1 | 30.8 |  |  |  |  |  |  |  |  |  |  |  |  | 
5 | C[P+]1(Cc2ccccc2)CCCC1 | > 100 | > 100 | > 100 µM | > 100 | > 100 | > 100 | > 100 |  |  |  |  |  |  |  |  |  |  |  |  | 
6 | O=C(O)c1ccc2c(c1)C(=O)N(c1ccc(S(=O)(=O)c3ccc(N4C(=O)c5ccc(C(=O)O)cc5C4=O)cc3)cc1)C2=O | > 100 |  | > 100 µM | > 100 | > 100 | > 100 | > 100 |  |  |  |  |  |  |  |  |  |  |  |  | 
7 | NC(=O)c1c(NC(=O)c2cccs2)sc2c1CCC(=O)C2 | > 100 | 48.9 | > 100 µM | 4.58 | 48.3 |  | > 100 | > 100 | 10.6 | 26.4 | 3.5 | 4.13 | 4.13 | 3.12 | 1.85 | 2.95 | 3.96 | 2.5 | 2.95 | 
8 | CC(=O)OC1CCC2OOC1O2 (centres undefined) | > 100 | > 100 | > 100 µM | > 100 | > 100 | > 100 | > 100 |  |  |  |  |  |  |  |  |  |  |  |  | 
9 | CN(c1ccccc1)c1cc2ccccc2nn1 | > 100 |  | > 100 µM | > 100 | > 100 | > 100 | > 100 |  |  |  |  |  |  |  |  |  |  |  |  | 
10 | Nc1cccc2c1-c1c(cccc1[N+](=O)[O-])C2=O | > 100 | > 100 | > 100 µM | > 100 | > 100 | > 100 | > 100 |  |  |  |  |  |  |  |  |  |  |  |  | 
11 | Cc1ccc(S(=O)(=O)OCOS(=O)(=O)c2ccc(C)cc2)cc1 | > 100 | > 100 |  | > 100 |  | > 100 | > 100 |  |  |  |  |  |  |  |  |  |  |  |  | 
12 | CC(=Nc1ccc(N(C)C)cc1)c1ccccc1 | 81.9 | > 100 | 73.4 µM | 25.9 | > 100 |  | 32.1 | > 100 |  | 68.4 |  |  |  |  |  |  |  |  |  | 
13 | COc1cccc(Nc2ncnc3cc(NC(=O)CCl)ccc23)c1 | 3.11 | 3.7 | 1.85 µM | 2.51 | 4.55 |  | 2.44 | 2.6 | 2.21 |  | 1.48 | 1.23 | 1.81 | 0.499 | 1.07 | 0.821 | 1.91 |  | 1.15 | 
14 | COC(=O)[C@H](Cc1cn(C)cn1)NC(=O)[C@H](CC(=O)OCc1ccccc1)NC(=O)Nc1cc(C(F)(F)F)cc(C(F)(F)F)c1 | 25.9 |  | 28.8 µM | 10.4 | 34.5 | 17.5 | 17.3 | 19.3 | 18.8 | 35.6 | 11.6 | 6.18 |  | 13.9 | 3.28 | 5.9 | 16.3 | 17.3 | 4.79 | 4.24
15 | c1ccc(C2=NOC3C4CCC(C4)C23)cc1 (centres undefined) | > 100 | > 100 | > 100 µM | > 100 | > 100 | > 100 | > 100 |  |  |  |  |  |  |  |  |  |  |  |  | 
16 | Cc1ccccc1NC(=O)/C(=N\NC(N)=S)C(C#N)c1ccccc1 (centres undefined) | > 100 | > 100 | > 100 µM | > 100 | > 100 | > 100 | > 100 |  |  |  |  |  |  |  |  |  |  |  |  | 
17 | Cn1[nH]cc2ccc3nc4ccccc4c(=O)c3c21 | > 66 | 90.5 | > 100 µM | 68.7 | 45.5 | 67.6 | > 100 |  |  |  |  |  |  |  |  |  |  |  |  | 
18 | NCCCNc1nc2ccccc2c2c(=O)c3cc(F)ccc3sc12 | 3.48 | 3.14 | 3.14 µM | 3.22 |  | 3.65 | 2.93 | 3.21 | 3.27 | 3.36 | 1.59 | 1.73 | 1.64 | 1.54 | 1.71 | 1.75 |  | 1.7 | 1.48 | 1.77
19 | NS(=O)(=O)c1ccc(N=Nc2ccc[nH]c2=O)cc1 | > 100 |  | > 100 µM | > 100 | > 100 | > 100 | > 100 | > 100 | > 100 | > 100 |  |  |  |  |  |  |  |  |  | 
20 | COc1cccc2c1C(=O)c1c(O)c3c(c(O)c1C2=O)C[C@@](O)(C(=O)CO)CC3OC1CC(N)C(OC2CCCCO2)C(C)O1 (some centres undefined) | 1.15 |  | 1.81 µM and 17.1 µM |  |  |  |  | 0.0489 | 0.229 | 4.06 | 0.00469 |  | 0.0457 | 0.0381 | 0.00377 |  |  |  | 0.0157 | 0.00394
21 | CCC12C=CCN(CCc3c([nH]c4ccccc34)/C=C\1)C2 (centres undefined) | > 100 | > 100 | > 100 µM | > 100 | > 100 | > 100 | > 100 |  |  |  |  |  |  |  |  |  |  |  |  | 
22 | O=C(Oc1ccccc1)N(c1ccccc1)c1ccccc1 | > 100 |  | > 100 µM | 91.4 | > 100 |  | > 100 | > 100 | 75.9 | 72.2 | 26.2 | 42.9 |  | 36.9 | 25 | 24.4 | 33.7 | 21.8 | 27.7 | 
